Laboratory results published in the supplement of paper PMC10307832.

Assays:
Assay in all cases: relative viability (nuclei count vs DMSO), 5 days (fraction); higher = more cells survive
Selisistat + Decitabine = compound: C1CC(C2=C(C1)C3=C(N2)C=CC(=C3)Cl)C(=O)N [Selisistat] + Nc1ncn([C@H]2C[C@H](O)[C@@H](CO)O2)c(=O)n1 [Decitabine] (partner 2 µM)
Procedure, shortened: (§1)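 After 5 days of treatment, lung cancer cells in 1536-well plates were fixed and stained in a single step (final 0.05% Triton X-100, 1% formaldehyde, 1 ug/ml Hoechst) and their nuclei counted on 4× images. Treatment had been applied by pin tool the day after seeding as one drug alone or as a fixed anchor-drug dose with five library-drug doses (not always all listed) in √10 steps. Relative viability is the nuclei count of treated wells divided by that of vehicle wells, and values are medians of duplicate plates.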

Selisistat + Pictilisib = compound: C1CC(C2=C(C1)C3=C(N2)C=CC(=C3)Cl)C(=O)N [Selisistat] + CS(=O)(=O)N1CCN(Cc2cc3nc(-c4cccc5[nH]ncc45)nc(N4CCOCC4)c3s2)CC1 [Pictilisib] (partner 1 µM)
Procedure, shortened: as §1

Serdemetan + AZD7762 = compound: c1ccc2c(CCNc3ccc(Nc4ccncc4)cc3)c[nH]c2c1 [Serdemetan] + NC(=O)Nc1cc(-c2cccc(F)c2)sc1C(=O)N[C@H]1CCCNC1 [AZD7762] (partner 0.2 µM)
Procedure, shortened: as §1

Serdemetan + Trametinib = compound: c1ccc2c(CCNc3ccc(Nc4ccncc4)cc3)c[nH]c2c1 [Serdemetan] + CC(=O)Nc1cccc(-n2c(=O)n(C3CC3)c(=O)c3c(Nc4ccc(I)cc4F)n(C)c(=O)c(C)c32)c1 [Trametinib] (partner 0.02 µM)
Procedure, shortened: as §1

Cell Line | relative viability (Selisistat + Decitabine; first compound 0.4 µM) | relative viability (Selisistat + Decitabine; first compound 1.265 µM) | relative viability (Selisistat + Decitabine; first compound 12.65 µM) | relative viability (Selisistat + Decitabine; first compound 40 µM) | relative viability (Selisistat + Pictilisib; first compound 0.4 µM) | relative viability (Selisistat + Pictilisib; first compound 1.265 µM) | relative viability (Selisistat + Pictilisib; first compound 4 µM) | relative viability (Selisistat + Pictilisib; first compound 12.65 µM) | relative viability (Selisistat + Pictilisib; first compound 40 µM) | relative viability (Serdemetan + AZD7762; first compound 0.04 µM) | relative viability (Serdemetan + AZD7762; first compound 0.1265 µM) | relative viability (Serdemetan + AZD7762; first compound 0.4 µM) | relative viability (Serdemetan + AZD7762; first compound 1.265 µM) | relative viability (Serdemetan + AZD7762; first compound 4 µM) | relative viability (Serdemetan + Trametinib; first compound 0.04 µM) | relative viability (Serdemetan + Trametinib; first compound 0.1265 µM) | relative viability (Serdemetan + Trametinib; first compound 0.4 µM) | relative viability (Serdemetan + Trametinib; first compound 1.265 µM) | relative viability (Serdemetan + Trametinib; first compound 4 µM) | relative viability (Selisistat + Decitabine; first compound 4 µM)
PC-3 [JPC-3] | 0.834 | 0.837 | 0.818 | 0.794 | 0.753 | 0.749 | 0.449 | 0.631 | 0.696 | 0.823 | 0.759 | 0.802 | 0.591 | 0.71 | 0.708 | 0.634 | 0.663 | 0.67 | 0.684 | 
PC-14 | 0.201 | 0.217 | 0.237 | 0.243 | 0.699 | 0.66 | 0.729 | 0.664 | 0.824 | 0.327 | 0.357 | 0.204 | 0.304 | 0.161 | 0.798 | 0.747 |  | 0.647 | 0.601 | 0.221
RERF-LC-KJ | 0.806 | 0.601 | 0.61 | 0.614 | 0.6 | 0.436 | 0.432 | 0.471 | 0.48 | 1.03 | 0.547 | 0.806 | 0.897 | 0.94 | 0.896 | 0.874 | 0.898 | 0.793 | 0.778 | 0.593
